Assays:
HIV LTR promoter = experiment: HIV LTR-driven CAT activity assay in U38 cells; format: cell-based
Description: ACH-2 and U38 cell lines (25, 26) were obtained from the NIH AIDS Reagent Program. DNA extracted from ACH-2 cells was used as a positive standard for HIV DNA PCR as previously reported (27). The U38 cell line contains stably integrated, silent copies of the HIV LTR (long terminal repeat) promoter linked to a CAT (chloramphenicol acetyltransferase) gene and was used to study the effect of SP and/or CP-96,345 and R-113281 on the activation of HIV LTR promoter.
Chloramphenicol acetyltransferase (CAT) activity assay:U38 cells (2×10^6 cells) were incubated with different concentrations of SP and/or CP-96,345 or R-113281 for 48 h. Untreated U38 cells were used as a background control. Cellular proteins were extracted using 1× Reporter Lysis Bufffer (Promega Corp., Madison, Wis.). The lysates were incubated with a mixture containing 0.15 μCi of ^14C-labeled chloramphenicol (DuPont Inc., Boston, Mass.) and 200 μg/ml of n-Butyryl CoA (Promega Corp., Madison, Wis.) in a total volume of 125 μl at 37° C. for 3 h. The acetylated forms of chloramphenicol were extracted with xylene (Aldrich Chemical Company, Milwaukee, Wis.). CAT activity of each sample was quantified using a liquid-scintillation counter (Packard Instrument Company, Downers Grove, Ill.). The results were expressed as the ratio of CAT activity (CPM) of the SP and/or CP-96,345-treated or R-113281-treated U38 to that of the background control.

HIV Bal strain [1] = experiment: HIV-induced syncytia formation in MDM; format: cell-based; conditions: 10^−7M; 12 days after infection (FIG. 2)
Description: Syncytia formation: To study the effect of neuropeptide antagonists on HIV-induced syncytia formation in MDM, 7-day-cultured macrophages were incubated in the presence or absence of CP-96,345 (10^−7M) for 2 h and then infected with HIV Bal strain. MDM which were neither incubated with CP-96,345 nor infected with HIV were used as a cell culture control. The morphology of HIV-induced syncytia formation was observed and photographed by a light microscopy (×400) 12 days after HIV infection.

HIV Bal strain [2] = experiment: HIV RT activity in HIV Bal strain-infected MDM; format: cell-based, HIV-1; conditions: for RT activity during HIV Bal infection of MDM: 10^−7−10^−6M (FIG. 18)
Description: (§1) The cells were also incubated with SP and/or anti-SP antibody. In this case, SP was incubated with (1:1000 dilution in 10% FCS DMEM) or without anti-SP antibody at room temperature for 10 min and then the mixture was added to the cell cultures for 2 h. When the cells were treated with the combination of CP-96,345 and SP, or CP-96,345, SP and anti-SP antibody, CP-96,345 was incubated with the cell culture for 10 min and then SP was added to the MDM or CP-96,345, SP and anti-SP (1:1000 in 10% FCS DMEM) were incubated for 10 min at room temperature and the mixture was incubated with the MDM for 2 h before infection with HIV. Untreated MDM served as controls. The cells were treated prior to, during, and throughout the infection.
HIV Infection: After 2 h incubation with or without the reagents described above, the cells were infected with equal amounts of cell-free HIV based on p24 antigen content (20 ng/10^6 cells) overnight, and then washed to remove unbound virus. Fresh media containing SP and/or CP-96,345 or anti-SP antibody were added to the MDM as described above. The culture media and the reagents were replaced twice weekly. The culture supernatants were harvested for HIV reverse transcriptase (RT) activity determinations. After HIV infection, the MDM were incubated for 8 to 12 days. At the termination of the experiments, cellular RNA was extracted for assessment of HIV gag gene expression using RT-PCR or real time RT-PCR assays.
The HIV RT activity assay was carried out based on the technique of Willey et al. (30) with modification (22).

R5X4 strain (89.6) = experiment: HIV RT activity in MDM infected with R5X4 strain; format: cell-based
Description: Based upon their differential use of the major HIV co-receptors, HIV isolates have been referred to as R5, X4 or R5X4 strains, respectively (29). The M-tropic (macrophage-tropic) R5 prototype strains (Bal and ADA), dual tropic strain (89.6) and X4 primary isolate (UG024), were obtained from the NIH AIDS Reagent Program. Primary M-tropic isolates (BL-6 and CSF-6) were isolated from the blood and cerebrospinal fluid cells, respectively, of a subject with AIDS.
as §1, with “infection. […]” for “infection.”

Row | SMILES | effect on SP activation of HIV LTR-driven CAT activity (HIV LTR promoter; SP 10^−8M, CP-96,345 10^−6M, 48 h (FIG. 7)) | HIV-induced giant syncytia formation in MDM (HIV Bal strain [1]) | viral replication by HIV RT activity vs HIV infection control (HIV Bal strain [2]; 10^−7M, 8 days after infection (FIG. 4)) | RT activity during HIV Bal infection of MDM (HIV Bal strain [2]) | HIV replication relative to HIV infection control (HIV Bal strain [2]; CP-96,345 10^−6M and/or anti-SP antibody 1:1000, 12 days (FIG. 5)) | inhibition at 1 µM (HIV Bal strain [2]; Human immunodeficiency virus 1, BAL, 192 h, 10^−6M, day 8 after HIV infection (FIG. 1B)) [%] | inhibition at 0.1 µM (HIV Bal strain [2]; Human immunodeficiency virus 1, BAL, 192 h, 10^−7M, day 8 after HIV infection (FIG. 1B)) [%] | inhibition at 0.01 µM (HIV Bal strain [2]; Human immunodeficiency virus 1, BAL, 192 h, 10^−8M, day 8 after HIV infection (FIG. 1B)) [%] | effect on SP-enhanced HIV replication in MDM (RT activity and gag mRNA) (HIV Bal strain [2]; SP 10^−6M, CP-96,345 10^−6M, anti-SP antibody 1:1000, 12 days (FIG. 5)) | replication of R5X4 strain 89.6 (RT activity) (R5X4 strain (89.6); CP-96,345 10^−7M, 8 days after infection (FIG. 6)) | effect on SP activation of HIV LTR-driven CAT activity (HIV LTR promoter; SP (10^−8M), R-113281 10^−6M, 48 hours (FIG. 16)) | HIV RT activity in Bal-infected MDM (HIV Bal strain [2]; day 8 post-infection, indicated concentrations (FIG. 12)) | replication of R5X4 strain (RT activity) (R5X4 strain (89.6); R-113281 10^−6 M, 8 days after infection (FIG. 14))
1 | COc1ccccc1CN[C@H]1C2CCN(CC2)[C@H]1C(c1ccccc1)c1ccccc1 [CP-96,345, 2S, 3S)-cis-2-(diphenylmethyl)-N-[(2-methoxyphenyl)-methyl]-1-azabicyclo[[2.2.2]octan-3-amine] | abrogated | failed to develop the giant syncytia | inhibited | inhibitory effects | down-regulated HIV replication to a level that was even lower than that of the HIV infection control | 54 | 43 | 1 | abrogated | inhibited to a lesser extent | – | – | –
2 | COc1cc(C(=O)N2CCO[C@](CCN3CCC4(CC3)c3ccccc3C[S@+]4[O-])(c3ccc(Cl)c(Cl)c3)C2)cc(OC)c1OC.Cl [R-113281] | – | – | – | inhibitory effects | – | – | – | – | – | – | abrogated | significantly reduced | inhibited to a lesser extent
